In general, IC50 refers to the concentration at which inhibition is half-maximal. A low value points to inhibition by little substance.

Here are results for 20 compounds from patent publication US9518052B2, “Pyrazolopyridines and pyrazolopyrimidines” (Pfizer Inc., priority 2014, dated 2016).

Where a name gives a salt, the structure may show the parent alone.

Common to all, as to assay type: biochemical
Holding throughout (settings): Caliper assay at 1 mM ATP

The target of one experiment is JAK3 (Homo sapiens (Human), UniProt P52333). Briefly: JAK Caliper Enzyme Assay at 1 mM ATP (JAK3). As for the experimental part:
(§1) JAK Caliper Enzyme Assay at 1 mM ATP
(§2) Test article was solubilized in dimethyl sulfoxide (DMSO) to a stock concentration of 30 mM. An 11-point half log dilution series was created in DMSO with a top concentration of 600 μM. […] The compound plates were diluted 1 to 60 resulting in a top final assay compound concentration of 10 μM and a 2% DMSO concentration.
(§3) Test article and assay controls were added to a 384-well plate. Reaction mixtures contained 20 mM HEPES, pH 7.4, 10 mM magnesium chloride, 0.01% bovine serum albumin (BSA), 0.0005% Tween 20, 1 mM ATP and 1 μM peptide substrate. […] Enzyme concentrations and incubation times were optimized for each new enzyme preps and were modified slightly over time to ensure 20%-30% phosphorylation. The assays were stopped with a final concentration of 10 mM EDTA, 0.1% Coating Reagent and 100 mM HEPES, pH=7.4. The assay plates were placed on a Caliper Life Science Lab Chip 3000 (LC3000) instrument, and each well was sampled using appropriate separation conditions to measure the unphosphorylated and phosphorylated peptide.

For the next experiment, the target named is TYK2 (Homo sapiens (Human), UniProt P29597). The experiment can be described thus: JAK Caliper Enzyme Assay at 1 mM ATP (TYK2). As for the experimental part: as §1, §2, §3
The next experiment has as its target JAK2 (Homo sapiens (Human), UniProt O60674). The experiment can be described thus: JAK Caliper Enzyme Assay at 1 mM ATP (JAK2). Here is the method: as §1, §2, §3
Another experiment deals with JAK1 (Homo sapiens (Human), UniProt P23458). Briefly: JAK Caliper Enzyme Assay at 1 mM ATP (JAK1). Here is the method:
as §1, §2, §3

JAK3, sequence (P52333 whole entry, species assumed): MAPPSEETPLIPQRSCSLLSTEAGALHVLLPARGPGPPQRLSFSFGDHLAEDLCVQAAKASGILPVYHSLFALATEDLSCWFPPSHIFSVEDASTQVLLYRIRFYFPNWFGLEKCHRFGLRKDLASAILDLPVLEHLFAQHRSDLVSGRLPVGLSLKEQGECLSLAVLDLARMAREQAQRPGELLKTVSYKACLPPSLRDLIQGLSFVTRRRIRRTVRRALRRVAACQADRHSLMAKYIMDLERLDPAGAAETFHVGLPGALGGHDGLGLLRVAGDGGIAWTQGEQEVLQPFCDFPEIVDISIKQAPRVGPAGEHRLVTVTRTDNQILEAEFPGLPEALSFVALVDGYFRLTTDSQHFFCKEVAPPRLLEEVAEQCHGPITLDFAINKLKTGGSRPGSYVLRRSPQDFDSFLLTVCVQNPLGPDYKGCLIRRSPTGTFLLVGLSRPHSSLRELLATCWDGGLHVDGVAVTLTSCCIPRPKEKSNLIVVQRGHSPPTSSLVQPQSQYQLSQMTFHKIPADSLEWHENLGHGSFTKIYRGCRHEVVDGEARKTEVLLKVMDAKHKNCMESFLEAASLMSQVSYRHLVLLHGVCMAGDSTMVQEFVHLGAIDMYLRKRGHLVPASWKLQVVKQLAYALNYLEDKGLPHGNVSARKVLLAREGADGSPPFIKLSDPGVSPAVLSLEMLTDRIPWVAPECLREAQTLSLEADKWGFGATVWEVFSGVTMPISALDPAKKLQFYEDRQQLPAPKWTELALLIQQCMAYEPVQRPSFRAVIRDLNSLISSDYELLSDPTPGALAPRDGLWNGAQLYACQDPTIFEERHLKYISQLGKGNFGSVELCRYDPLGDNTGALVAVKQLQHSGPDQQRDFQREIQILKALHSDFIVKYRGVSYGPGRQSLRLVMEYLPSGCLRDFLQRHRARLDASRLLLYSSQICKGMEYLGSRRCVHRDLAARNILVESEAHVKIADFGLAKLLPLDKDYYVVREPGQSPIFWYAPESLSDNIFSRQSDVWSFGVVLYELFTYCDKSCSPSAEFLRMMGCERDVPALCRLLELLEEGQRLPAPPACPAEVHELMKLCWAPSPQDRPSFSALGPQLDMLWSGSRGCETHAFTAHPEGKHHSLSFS
TYK2, sequence (P29597 whole entry, species assumed): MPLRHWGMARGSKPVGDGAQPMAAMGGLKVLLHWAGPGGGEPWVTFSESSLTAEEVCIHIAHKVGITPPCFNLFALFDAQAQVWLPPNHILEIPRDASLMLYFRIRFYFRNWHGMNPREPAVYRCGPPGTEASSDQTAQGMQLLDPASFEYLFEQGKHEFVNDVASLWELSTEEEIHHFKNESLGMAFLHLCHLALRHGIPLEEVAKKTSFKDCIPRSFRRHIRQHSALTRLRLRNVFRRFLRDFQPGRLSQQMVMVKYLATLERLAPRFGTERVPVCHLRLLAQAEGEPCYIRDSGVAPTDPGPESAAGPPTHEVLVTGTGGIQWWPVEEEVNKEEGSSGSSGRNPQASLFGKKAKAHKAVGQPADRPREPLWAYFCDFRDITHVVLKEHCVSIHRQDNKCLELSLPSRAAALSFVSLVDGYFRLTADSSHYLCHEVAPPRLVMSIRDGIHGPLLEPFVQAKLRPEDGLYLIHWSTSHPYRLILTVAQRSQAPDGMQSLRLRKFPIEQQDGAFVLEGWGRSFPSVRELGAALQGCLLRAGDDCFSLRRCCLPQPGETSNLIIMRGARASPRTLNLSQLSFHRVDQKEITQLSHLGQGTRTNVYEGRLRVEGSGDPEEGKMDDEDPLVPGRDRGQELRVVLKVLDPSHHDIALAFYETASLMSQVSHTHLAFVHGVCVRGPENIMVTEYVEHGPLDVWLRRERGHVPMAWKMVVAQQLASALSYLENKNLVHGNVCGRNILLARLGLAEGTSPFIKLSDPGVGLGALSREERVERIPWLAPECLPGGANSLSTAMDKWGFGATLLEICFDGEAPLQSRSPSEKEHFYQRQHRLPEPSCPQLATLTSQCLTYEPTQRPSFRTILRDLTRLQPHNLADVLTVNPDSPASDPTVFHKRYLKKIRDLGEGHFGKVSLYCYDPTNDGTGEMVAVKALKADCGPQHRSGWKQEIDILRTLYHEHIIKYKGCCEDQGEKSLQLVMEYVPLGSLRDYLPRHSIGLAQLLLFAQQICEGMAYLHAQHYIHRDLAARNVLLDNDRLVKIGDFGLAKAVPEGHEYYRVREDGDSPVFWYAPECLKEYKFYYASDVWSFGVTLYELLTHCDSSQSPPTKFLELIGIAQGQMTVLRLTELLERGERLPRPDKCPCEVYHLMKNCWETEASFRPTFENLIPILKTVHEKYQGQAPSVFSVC
JAK1, sequence (P23458 whole entry, species assumed): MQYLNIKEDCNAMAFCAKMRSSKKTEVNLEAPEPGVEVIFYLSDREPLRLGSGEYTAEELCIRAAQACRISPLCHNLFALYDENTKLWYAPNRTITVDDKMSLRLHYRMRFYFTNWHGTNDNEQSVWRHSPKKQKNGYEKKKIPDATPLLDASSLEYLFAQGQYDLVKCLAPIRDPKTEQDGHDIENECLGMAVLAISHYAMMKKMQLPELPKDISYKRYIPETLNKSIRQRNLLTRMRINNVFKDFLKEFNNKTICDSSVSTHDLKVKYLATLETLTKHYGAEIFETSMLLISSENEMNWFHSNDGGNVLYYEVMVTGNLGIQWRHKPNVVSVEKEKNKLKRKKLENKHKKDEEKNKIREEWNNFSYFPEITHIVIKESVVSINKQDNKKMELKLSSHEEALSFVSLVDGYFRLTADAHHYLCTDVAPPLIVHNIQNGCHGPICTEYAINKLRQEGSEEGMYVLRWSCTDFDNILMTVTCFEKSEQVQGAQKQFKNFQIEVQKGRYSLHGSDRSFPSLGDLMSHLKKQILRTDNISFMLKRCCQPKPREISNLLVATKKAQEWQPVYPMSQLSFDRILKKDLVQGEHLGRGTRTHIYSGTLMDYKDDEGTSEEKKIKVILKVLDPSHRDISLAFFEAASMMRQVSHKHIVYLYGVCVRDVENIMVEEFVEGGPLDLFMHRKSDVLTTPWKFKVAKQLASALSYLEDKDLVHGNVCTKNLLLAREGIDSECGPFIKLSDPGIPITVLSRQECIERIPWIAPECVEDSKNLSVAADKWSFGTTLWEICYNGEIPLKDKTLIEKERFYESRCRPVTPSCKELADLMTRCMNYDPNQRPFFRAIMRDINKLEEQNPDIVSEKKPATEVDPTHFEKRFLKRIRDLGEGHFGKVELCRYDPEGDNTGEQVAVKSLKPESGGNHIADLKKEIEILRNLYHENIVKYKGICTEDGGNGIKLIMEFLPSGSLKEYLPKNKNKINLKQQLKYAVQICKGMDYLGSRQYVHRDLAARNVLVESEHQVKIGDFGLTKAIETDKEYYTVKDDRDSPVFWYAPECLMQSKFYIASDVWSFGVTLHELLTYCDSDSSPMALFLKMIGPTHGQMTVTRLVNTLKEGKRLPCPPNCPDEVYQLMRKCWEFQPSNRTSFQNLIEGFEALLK
JAK2, sequence (O60674 whole entry, species assumed): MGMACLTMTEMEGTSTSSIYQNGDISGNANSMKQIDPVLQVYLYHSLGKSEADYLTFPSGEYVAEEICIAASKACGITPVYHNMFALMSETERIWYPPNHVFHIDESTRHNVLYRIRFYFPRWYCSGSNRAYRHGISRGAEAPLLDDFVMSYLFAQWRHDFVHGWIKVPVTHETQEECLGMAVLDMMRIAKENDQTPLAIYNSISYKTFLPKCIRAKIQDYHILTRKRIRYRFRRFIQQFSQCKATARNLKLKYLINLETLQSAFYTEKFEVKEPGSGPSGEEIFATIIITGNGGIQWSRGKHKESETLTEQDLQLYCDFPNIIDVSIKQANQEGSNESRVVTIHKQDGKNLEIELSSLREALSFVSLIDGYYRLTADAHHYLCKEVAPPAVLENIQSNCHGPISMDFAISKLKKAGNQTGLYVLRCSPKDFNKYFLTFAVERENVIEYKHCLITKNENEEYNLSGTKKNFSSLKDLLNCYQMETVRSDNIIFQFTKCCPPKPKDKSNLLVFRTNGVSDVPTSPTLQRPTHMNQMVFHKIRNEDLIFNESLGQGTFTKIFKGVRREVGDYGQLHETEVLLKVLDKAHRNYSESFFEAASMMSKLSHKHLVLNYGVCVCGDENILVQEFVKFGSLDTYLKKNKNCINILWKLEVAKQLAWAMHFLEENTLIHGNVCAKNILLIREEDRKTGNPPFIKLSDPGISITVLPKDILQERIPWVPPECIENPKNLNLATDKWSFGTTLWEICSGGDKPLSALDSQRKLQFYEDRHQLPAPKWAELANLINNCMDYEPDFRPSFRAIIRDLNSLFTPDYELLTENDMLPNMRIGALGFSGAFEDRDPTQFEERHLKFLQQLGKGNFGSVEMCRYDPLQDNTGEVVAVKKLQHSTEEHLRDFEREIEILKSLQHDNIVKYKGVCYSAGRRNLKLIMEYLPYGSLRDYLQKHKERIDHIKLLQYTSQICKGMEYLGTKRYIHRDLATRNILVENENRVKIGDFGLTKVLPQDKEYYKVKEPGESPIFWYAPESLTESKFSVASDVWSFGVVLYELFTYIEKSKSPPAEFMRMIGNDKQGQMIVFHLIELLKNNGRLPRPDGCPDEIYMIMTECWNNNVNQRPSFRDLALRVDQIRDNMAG

With `CCN(c1ccccc1CNc1nc(-c2cc(F)c(O)cc2CC(F)(F)F)cc2[nH]nc(C(=O)NC)c12)S(=O)(=O)CC` [Example 1, 4-({2-[Ethyl(ethylsulfonyl)amino]benzyl}amino)-6-[5-fluoro-4-hydroxy-2-(2,2,2-trifluoroethyl)phenyl]-N-methyl-1H-pyrazolo[4,3-c]pyridine-3-carboxamide], the IC50 against JAK3 turned out to be 177 nM; against TYK2, 36.5 nM; at JAK2, 38.1 nM; at JAK1, 8 nM.

`CCc1cc(O)c(F)cc1-c1cc2[nH]nc(C(=O)NC)c2c(NCc2ccccc2N(CC)S(=O)(=O)CC)n1` [Example 2, 4-({2-[ethyl(ethylsulfonyl)-amino]benzyl}amino)-6-(2-ethyl-5-fluoro-4-hydroxyphenyl)-N-methyl-1H-pyrazolo[4,3-c]pyridine-3-carboxamide]: the IC50 amounted to 84.5 nM on JAK3, 12.1 nM against TYK2, 17 nM against JAK2 and 3.4 nM against JAK1.

In the case of `CCc1cc(O)c(F)cc1-c1cc2[nH]nc(C(=O)NC)c2c(NCc2ccccc2N(C)S(=O)(=O)CC)n1` [Example 3, 6-(2-ethyl-5-fluoro-4-hydroxy-phenyl)-4-({2-[(ethylsulfonyl)-(methyl)amino]benzyl}amino)-N-methyl-1H-pyrazolo[4,3-c]pyridine-3-carboxamide], the IC50 was 47.5 nM on JAK3, 6.8 nM at TYK2, 9.6 nM against JAK2 and 1.9 nM against JAK1.

`CCc1cc(O)c(F)cc1-c1cc2[nH]nc(C(=O)NC)c2c(NCC(C)C)n1` [Example 5, 6-(2-ethyl-5-fluoro-4-hydroxyphenyl)-N-methyl-4-[(2-methylpropyl)amino]-1H-pyrazolo[4,3-c]pyridine-3-carboxamide]: the IC50 amounted to 31.9 nM on JAK3, 7 nM against TYK2, 7.5 nM against JAK2 and 2.1 nM against JAK1.

Turning to `CCc1cc(O)c(F)cc1-c1cc2[nH]nc(C(=O)NC)c2c(NCc2cc(Cl)ccc2N(C)S(C)(=O)=O)n1` [Example 6, 4-({5-chloro-2-[methyl(methyl-sulfonyl)amino]benzyl}amino)-6-(2-ethyl-5-fluoro-4-hydroxy-phenyl)-N-methyl-1H-pyrazolo[4,3-c]pyridine-3-carboxamide], the 50% inhibitory concentration (IC50) on JAK3 is 84.9 nM; against TYK2, 15.3 nM; against JAK2, 15.8 nM; on JAK1, 3.1 nM.

As for `CCc1cc(O)c(F)cc1-c1cc2[nH]nc(C(=O)NC)c2c(NCc2cc(F)ccc2N(C)S(C)(=O)=O)n1` [Example 7, 6-(2-ethyl-5-fluoro-4-hydroxyphenyl)-4-({5-fluoro-2-[methyl(methyl-sulfonyl)amino]benzyl}amino)-N-methyl-1H-pyrazolo[4,3-c]pyridine-3-carboxamide], the concentration for half-maximal inhibition (IC50) at JAK3 was 49 nM; on TYK2, 6.5 nM; against JAK2 it was 9.2 nM; against JAK1, 1.7 nM.

Consider `CCc1cc(O)c(F)cc1-c1cc2[nH]nc(C(=O)NC)c2c(NCc2c(F)cccc2N(C)S(C)(=O)=O)n1` [Example 8, 6-(2-ethyl-5-fluoro-4-hydroxyphenyl)-4-({2-fluoro-6-[methyl(methyl-sulfonyl)amino]benzyl}amino)-N-methyl-1H-pyrazolo[4,3-c]pyridine-3-carboxamide], for which the IC50 against JAK3 turned out to be 33.8 nM; on TYK2 it was 5.7 nM; on JAK2 it was 7.5 nM; on JAK1 it was 1.7 nM.

On to `CNC(=O)c1n[nH]c2cc(-c3cc(F)c(O)cc3CC(F)(F)F)nc(NCc3cc(C)ccc3N(C)S(C)(=O)=O)c12` [Example 11, 6-[5-fluoro-4-hydroxy-2-(2,2,2-trifluoroethyl)phenyl]-N-methyl-4-({5-methyl-2-[methyl(methyl-sulfonyl)amino]benzyl}amino)-1H-pyrazolo[4,3-c]pyridine-3-carboxamide], for which the IC50 on JAK3 was determined as 207 nM; on TYK2 it was 229 nM; against JAK2, 36.9 nM; on JAK1, 8.7 nM.

With `CNC(=O)c1n[nH]c2cc(-c3cc(F)c(O)cc3CC(F)(F)F)nc(NCc3cc(Cl)ccc3N(C)S(C)(=O)=O)c12` [Example 15, 4-({5-chloro-2-[methyl(methyl-sulfonyl)amino]benzyl}amino)-6-[5-fluoro-4-hydroxy-2-(2,2,2-trifluoroethyl)phenyl]-N-methyl-1H-pyrazolo[4,3-c]pyridine-3-carboxamide], the 50% inhibitory concentration (IC50) at JAK3 was determined as 342 nM; on TYK2, 618 nM; at JAK2, 55 nM; at JAK1 it was 13.6 nM.

For the compound `CNC(=O)c1n[nH]c2cc(-c3cc(F)c(O)cc3CC(F)(F)F)nc(NCC(C)C)c12` [Example 16, 6-[5-fluoro-4-hydroxy-2-(2,2,2-trifluoroethyl)phenyl]-N-methyl-4-[(2-methylpropyl)amino]-1H-pyrazolo[4,3-c]pyridine-3-carboxamide], the IC50 against JAK3 came out at 131 nM; on TYK2 it was 66 nM; against JAK2, 23 nM; against JAK1, 6.3 nM.

`CNC(=O)c1n[nH]c2cc(-c3cc(F)c(O)cc3CC(F)(F)F)nc(NCC3CCCC3)c12` [Example 17, 4-[(cyclopentylmethyl)-amino]-6-[5-fluoro-4-hydroxy-2-(2,2,2-trifluoro-ethyl)phenyl]-N-methyl-1H-pyrazolo[4,3-c]pyridine-3-carboxamide]: the half-maximal inhibitory concentration (IC50) against JAK3 was 256 nM; at TYK2, 142 nM; on JAK2, 52.9 nM; at JAK1 it was 18.5 nM.

Turning to `CCc1cc(O)c(F)cc1-c1cc2[nH]nc(C(=O)NC)c2c(NCc2ccccc2N(C)S(C)(=O)=O)n1` [Example 19, 6-(2-ethyl-5-fluoro-4-hydroxy-phenyl)-N-methyl-4-({2-[methyl(methyl-sulfonyl)amino]benzyl}amino)-1H-pyrazolo[4,3-c]pyridine-3-carboxamide], the IC50 against JAK3 came out at 30.9 nM; against TYK2 it was 4.8 nM; against JAK2, 5.9 nM; on JAK1 it was 0.9 nM.

Turning to `CCc1cc(O)c(F)cc1-c1cc2[nH]nc(C(N)=O)c2c(NCc2ccc(O)cc2N(C)S(C)(=O)=O)n1` [Example 30, 6-(2-Ethyl-5-fluoro-4-hydroxyphenyl)-4-({4-hydroxy-2-[methyl(methylsulfonyl)amino]benzyl}amino)-1H-pyrazolo[4,3-c]pyridine-3-carboxamide], the IC50 on JAK3 turned out to be 23.3 nM; against TYK2, 29 nM; at JAK2, 5.8 nM; on JAK1 it was 1 nM.

Consider `CCc1cc(O)c(F)cc1-c1cc2[nH]nc(C(=O)NC)c2c(NCc2cc(O)ccc2N(C)S(C)(=O)=O)n1` [Example 31, 6-(2-Ethyl-5-fluoro-4-hydroxyphenyl)-4-({5-hydroxy-2-[methyl(methylsulfonyl)amino]benzyl}amino)-N-methyl-1H-pyrazolo[4,3-c]pyridine-3-carboxamide], for which the IC50 against JAK3 worked out at 33 nM; against TYK2, 4.6 nM; on JAK2 it was 7 nM; against JAK1 it was 1.3 nM.

Consider `CCc1cc(O)ccc1-c1cc2[nH]ncc2c(NCc2c(C)cccc2N(C)S(C)(=O)=O)n1` [Example 127, N-[2-({[6-(2-ethyl-4-hydroxyphenyl)-1H-pyrazolo[4,3-c]pyridin-4-yl]amino}methyl)-3-methylphenyl]-N-methylmethanesulfonamide diethylamine salt], for which the concentration for half-maximal inhibition (IC50) is 625 nM at TYK2, 14.9 nM against JAK2 and 6 nM on JAK1.

On to `CCc1cc(O)ccc1-c1cc2[nH]ncc2c(N2CCC(OC)CC2)n1` [Example 128, 3-ethyl-4-[4-(4-methoxypiperidin-1-yl)-1H-pyrazolo[4,3-c]pyridin-6-yl]phenol diethylamine salt], for which the IC50 came to 514 nM against TYK2, 12.6 nM on JAK2 and 3.6 nM at JAK1.

Regarding `CCCCN(c1ccccc1CNc1nc(-c2cc(F)c(O)cc2CC)cc2[nH]ncc12)S(C)(=O)=O` [Example 139], the concentration for half-maximal inhibition (IC50) against JAK3 was found to be 27.5 nM; on TYK2, 1990 nM; against JAK2, 16.7 nM.

Regarding `CCc1cc(O)c(F)cc1-c1cc2[nH]ncc2c(N(CCN2CCOCC2)Cc2ccccc2N(C)S(C)(=O)=O)n1` [Example 140, N-[2-({[6-(2-ethyl-5-fluoro-4-hydroxyphenyl)-1H-pyrazolo[4,3-c]pyridin-4-yl][2-(morpholin-4-yl)ethyl]amino}methyl)phenyl]-N-methylmethanesulfonamide], the IC50 against JAK3 is 131 nM; at JAK2 it was 53.5 nM; against JAK1, 18.1 nM.

With `Oc1cc(CC(F)(F)F)c(-c2nc(NCCC3CC3)c3cn[nH]c3n2)cc1F` [Example 152, 4-{4-[(2-cyclopropylethyl)amino]-1H-pyrazolo[3,4-d]pyrimidin-6-yl}-2-fluoro-5-(2,2,2-trifluoroethyl)phenol], the results for the IC50 against JAK3, at JAK2 and on JAK1 were 157 nM, 228 nM and 41.6 nM, respectively.

Take “N-ethyl-N-[2-({[6-(2-ethyl-5-fluoro-4-hydroxyphenyl)-1H-pyrazolo[4,3-c]pyridin-4-yl]amino}methyl)phenyl]ethanesulfonamide [Example 138]”: the IC50 against JAK3 was 14.2 nM; against TYK2, 4.8 nM; against JAK2, 2.6 nM.
